Results: ChEMBL document CHEMBL4219173, “2,4-Diamino-8-quinazoline carboxamides as novel, potent inhibitors of the NAD hydrolyzing enzyme CD38: Exploration of the 2-position structure-activity relationships” (Bioorg Med Chem, 2018)
Values after ≈ are worked out from the molar mass of the structure shown.

How the values were obtained:
[1] = Lipophilicity, log D of the compound by chromatographic method; format: physicochemical
[2] = biological target: T1, ADP-ribosyl cyclase/cyclic ADP-ribose hydrolase 1 (Homo sapiens, UniProt P28907); assay: Inhibition of recombinant human CD38 extracellular domain expressed in Pichia pastoris using NAD as substrate pretreated for 30 mins followed by substrate addition measured after 15 to 45 mins
T1 sequence (P28907 whole entry): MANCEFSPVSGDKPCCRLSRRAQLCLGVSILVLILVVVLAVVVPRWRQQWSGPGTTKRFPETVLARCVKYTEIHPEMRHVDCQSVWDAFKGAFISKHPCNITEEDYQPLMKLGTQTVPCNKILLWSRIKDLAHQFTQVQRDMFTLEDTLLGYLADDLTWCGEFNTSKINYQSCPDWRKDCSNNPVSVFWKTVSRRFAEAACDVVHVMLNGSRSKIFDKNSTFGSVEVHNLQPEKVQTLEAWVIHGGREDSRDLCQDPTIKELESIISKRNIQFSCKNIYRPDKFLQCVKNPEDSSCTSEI

[3] = biological target: Voltage-gated inwardly rectifying potassium channel KCNH2 (Homo sapiens, UniProt Q12809); assay: Inhibition of human ERG
Cytochrome P450 3A4 = Cytochrome P450 3A4 (Homo sapiens, UniProt P08684); assay: Inhibition of CYP3A4 (unknown origin); format: ADME
[4] = Aqueous solubility of the compound in FaSSIF; format: physicochemical
[5] = Permeability of the compound by PAMPA; format: ADME; details: read-out: permeability
[6] = Half life in mouse at 2 mg/kg, iv; format: ADME, organism-based; details: in vivo
[7] = Clearance in mouse at 2 mg/kg, iv; format: ADME, organism-based; details: in vivo
[8] = Volume of distribution at steady state in mouse at 2 mg/kg, iv; format: ADME, organism-based; details: in vivo, read-out: Vdss
[9] = Oral bioavailability in mouse at 30 mg/kg; format: ADME, organism-based; details: in vivo
Mus musculus = assay: Dose normalized AUC in mouse at 30 mg/kg, po; format: ADME, organism-based; details: in vivo

Cytochrome P450 3A4, sequence (P08684 whole entry): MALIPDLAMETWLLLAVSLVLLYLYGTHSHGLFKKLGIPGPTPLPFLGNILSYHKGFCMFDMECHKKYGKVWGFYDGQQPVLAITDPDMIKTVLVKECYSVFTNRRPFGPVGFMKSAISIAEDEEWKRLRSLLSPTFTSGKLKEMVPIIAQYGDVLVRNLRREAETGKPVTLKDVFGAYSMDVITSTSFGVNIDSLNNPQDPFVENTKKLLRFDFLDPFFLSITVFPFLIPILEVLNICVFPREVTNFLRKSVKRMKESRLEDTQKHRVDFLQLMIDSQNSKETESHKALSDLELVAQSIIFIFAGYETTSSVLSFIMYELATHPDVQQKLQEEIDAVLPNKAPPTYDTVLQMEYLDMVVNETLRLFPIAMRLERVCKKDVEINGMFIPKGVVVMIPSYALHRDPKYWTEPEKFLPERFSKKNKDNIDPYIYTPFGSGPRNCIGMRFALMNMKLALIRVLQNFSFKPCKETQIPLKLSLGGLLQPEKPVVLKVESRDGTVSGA
Voltage-gated inwardly rectifying potassium channel KCNH2, sequence (Q12809 whole entry): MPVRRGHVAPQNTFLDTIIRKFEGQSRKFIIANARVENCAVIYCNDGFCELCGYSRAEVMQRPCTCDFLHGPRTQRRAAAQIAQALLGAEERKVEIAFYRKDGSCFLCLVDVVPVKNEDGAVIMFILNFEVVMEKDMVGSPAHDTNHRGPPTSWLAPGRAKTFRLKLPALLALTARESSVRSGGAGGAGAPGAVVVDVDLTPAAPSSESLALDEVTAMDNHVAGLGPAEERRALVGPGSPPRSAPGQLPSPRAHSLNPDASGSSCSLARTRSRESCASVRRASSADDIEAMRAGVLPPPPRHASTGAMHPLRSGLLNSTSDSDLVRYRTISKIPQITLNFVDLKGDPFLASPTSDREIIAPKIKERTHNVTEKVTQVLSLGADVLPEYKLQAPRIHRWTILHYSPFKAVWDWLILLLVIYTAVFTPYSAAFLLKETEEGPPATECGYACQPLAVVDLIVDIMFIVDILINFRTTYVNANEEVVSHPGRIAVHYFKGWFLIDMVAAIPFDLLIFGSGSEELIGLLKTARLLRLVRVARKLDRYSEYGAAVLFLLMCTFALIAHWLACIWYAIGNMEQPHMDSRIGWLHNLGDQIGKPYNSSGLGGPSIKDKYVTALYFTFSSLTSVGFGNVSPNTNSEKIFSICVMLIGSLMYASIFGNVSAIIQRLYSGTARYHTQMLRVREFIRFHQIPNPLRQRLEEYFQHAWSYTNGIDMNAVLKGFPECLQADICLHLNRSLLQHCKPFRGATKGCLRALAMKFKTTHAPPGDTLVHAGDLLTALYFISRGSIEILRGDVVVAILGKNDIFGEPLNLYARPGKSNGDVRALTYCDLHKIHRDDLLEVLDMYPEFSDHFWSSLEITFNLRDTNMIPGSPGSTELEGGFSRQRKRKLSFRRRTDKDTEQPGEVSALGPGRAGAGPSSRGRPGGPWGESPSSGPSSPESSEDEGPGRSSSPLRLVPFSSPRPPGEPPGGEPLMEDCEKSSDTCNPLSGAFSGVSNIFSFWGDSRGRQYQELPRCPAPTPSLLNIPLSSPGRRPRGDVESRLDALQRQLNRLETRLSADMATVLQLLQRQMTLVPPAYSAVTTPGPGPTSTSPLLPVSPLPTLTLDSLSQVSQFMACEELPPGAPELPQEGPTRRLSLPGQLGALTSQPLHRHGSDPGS

Cc1cc(NCc2c(F)cccc2C(F)(F)F)c2cccc(C(N)=O)c2n1
chromatographic logD [1]: 5.1

CC1(C)c2[nH]nc(N)c2CN1C1=NC(NCc2c(F)cccc2C(F)(F)F)c2cccc(C(N)=O)c2N1 (configuration not stated)
IC50 [2]: 0.02 µM

NC(=O)c1cccc2c1NC(N1Cc3c(N)n[nH]c3C13CCCC3)=NC2NCc1c(F)cccc1C(F)(F)F (configuration not stated)
IC50 [2]: 0.017 µM

Cc1n[nH]c2c1CN(C1=NC(NCc3c(F)cccc3C(F)(F)F)c3cccc(C(N)=O)c3N1)[C@H]2C (some centres not stated)
IC50 [2]: 0.17 µM

C[C@H]1c2[nH]nc(N)c2CN1C1=NC(NCc2c(F)cccc2C(F)(F)F)c2cccc(C(N)=O)c2N1 (some centres not stated)
IC50 [2]: 0.31 µM

NC(=O)c1cccc2c1NC(N1Cc3[nH]nc(N)c3C1)=NC2NCc1c(F)cccc1C(F)(F)F (configuration not stated)
IC50 [2]: 0.11 µM

NC(=O)c1cccc2c1NC(N1Cc3c(N)n[nH]c3C13CCC3)=NC2NCc1c(F)cccc1C(F)(F)F (configuration not stated)
IC50 [2]: 0.0078 µM

NC(=O)c1cccc2c(NCc3c(F)cccc3C(F)(F)F)nc(NCc3cn[nH]c3)nc12
IC50 [2]: 0.45 µM

NC(=O)c1cccc2c1NC(N1Cc3[nH]nc(C(F)(F)F)c3C1)=NC2NCc1c(F)cccc1C(F)(F)F (configuration not stated)
IC50 [2]: 4.1 µM

Cc1n[nH]c2c1CN(C1=NC(NCc3c(F)cccc3C(F)(F)F)c3cccc(C(N)=O)c3N1)[C@@H]2C (some centres not stated)
IC50 [2]: 0.021 µM

CN(Cc1ccn[nH]1)c1nc(NCc2c(F)cccc2C(F)(F)F)c2cccc(C(N)=O)c2n1
IC50 [2]: 1.9 µM

C[C@@H]1c2cn[nH]c2CN1C1=NC(NCc2c(F)cccc2C(F)(F)F)c2cccc(C(N)=O)c2N1 (some centres not stated)
IC50 [2]: 0.33 µM

NC(=O)c1cccc2c1NC(N1CCCc3cn[nH]c3C1)=NC2NCc1c(F)cccc1C(F)(F)F (configuration not stated)
IC50 [2]: 19 µM

CC[C@H]1c2[nH]ncc2CN1C1=NC(NCc2c(F)cccc2C(F)(F)F)c2cccc(C(N)=O)c2N1 (some centres not stated)
IC50 [2]: 0.37 µM

Cc1n[nH]c2c1CN(C1=NC(NCc3c(F)cccc3C(F)(F)F)c3cccc(C(N)=O)c3N1)C2 (configuration not stated)
IC50 [3]: 12.6 µM
IC50 [2]: 0.042 µM
IC50 (Cytochrome P450 3A4): 0.631 µM

C[C@@H]1c2[nH]nc(N)c2CN1C1=NC(NCc2c(F)cccc2C(F)(F)F)c2cccc(C(N)=O)c2N1 (some centres not stated)
IC50 [2]: 0.045 µM

NC(=O)c1cccc2c(NCc3c(F)cccc3C(F)(F)F)nc(N3CCc4[nH]ncc4C3)nc12
IC50 [2]: 0.63 µM

CC(=O)c1n[nH]c2c1CN(C1=NC(NCc3c(F)cccc3C(F)(F)F)c3cccc(C(N)=O)c3N1)C2 (configuration not stated)
IC50 [2]: 0.14 µM

CC[C@@H]1c2[nH]ncc2CN1C1=NC(NCc2c(F)cccc2C(F)(F)F)c2cccc(C(N)=O)c2N1 (some centres not stated)
IC50 [2]: 0.071 µM

NC(=O)c1cccc2c(NCc3c(F)cccc3C(F)(F)F)nc(NCc3nnn[nH]3)nc12
IC50 [2]: 8 µM

NC(=O)c1cccc2c(NCc3c(F)cccc3C(F)(F)F)nc(NCc3ccon3)nc12
IC50 [2]: 5.5 µM

Cn1cc2c(n1)CN(C1Nc3c(C(N)=O)cccc3C(NCc3c(F)cccc3C(F)(F)F)N1)C2 (configuration not stated)
IC50 [2]: 0.16 µM

NC(=O)c1cccc2c1NC(N1Cc3[nH][nH]c(=O)c3C1)=NC2NCc1c(F)cccc1C(F)(F)F (configuration not stated)
IC50 [2]: 1.6 µM

C[C@H](O)c1n[nH]c2c1CN(C1=NC(NCc3c(F)cccc3C(F)(F)F)c3cccc(C(N)=O)c3N1)C2 (some centres not stated)
IC50 [2]: 0.11 µM
solubility [4]: 12 µg/mL (≈ 23.2 µM)

NC(=O)c1cccc2c(NCc3c(F)cccc3C(F)(F)F)nc(NCc3cnco3)nc12
IC50 [2]: 3.4 µM

C[C@H]1c2n[nH]cc2CN1C1=NC(NCc2c(F)cccc2C(F)(F)F)c2cccc(C(N)=O)c2N1 (some centres not stated)
IC50 [2]: 0.41 µM

CCc1n[nH]c2c1CN(C1=NC(NCc3c(F)cccc3C(F)(F)F)c3cccc(C(N)=O)c3N1)C2 (configuration not stated)
IC50 [2]: 0.083 µM

NC(=O)c1cccc2c(NCc3c(F)cccc3C(F)(F)F)nc(NCc3ccn[nH]3)nc12
IC50 [2]: 2.3 µM

NC(=O)c1cccc2c(NCc3c(F)cccc3C(F)(F)F)cc(NCc3cn[nH]c3)nc12
IC50 [2]: 0.072 µM

NC(=O)c1cccc2c(NCc3c(F)cccc3C(F)(F)F)nc(N3Cc4cn[nH]c4C3)nc12
IC50 [2]: 0.092 µM
solubility [4]: 6 µg/mL (≈ 12.7 µM)

NC(=O)c1cccc2c(NCc3c(F)cccc3C(F)(F)F)nc(NCc3c[nH]cn3)nc12
IC50 [2]: 1.6 µM

NC(=O)c1c(C(F)(F)F)ccc2c(NCc3c(F)cccc3C(F)(F)F)nc(NCc3ncco3)nc12
IC50 [2]: 4.2 µM

Cn1ncc2c1CN(C1=NC(NCc3c(F)cccc3C(F)(F)F)c3cccc(C(N)=O)c3N1)C2 (configuration not stated)
IC50 [2]: 0.082 µM
solubility [4]: 2 µg/mL (≈ 4.1 µM)

NC(=O)c1cccc2c(NCc3c(F)cccc3C(F)(F)F)nc(N3CCc4cn[nH]c4C3)nc12
IC50 [2]: 1.9 µM

C[C@@H]1c2n[nH]cc2CN1C1=NC(NCc2c(F)cccc2C(F)(F)F)c2cccc(C(N)=O)c2N1 (some centres not stated)
IC50 [3]: 3.16 µM
IC50 [2]: 0.051 µM
IC50 (Cytochrome P450 3A4): 0.158 µM
Papp [5]: 14.7 ×10⁻⁶ cm/s
solubility [4]: 34 µg/mL (≈ 69.7 µM)
half-life [6]: 1.4 h
clearance [7]: 37 mL/min/kg
Vd [8]: 2.7 L/kg
bioavailability [9]: 69%
AUC/dose (Mus musculus): 327 ng·h/mL/(mg/kg)

NC(=O)c1cccc2c(NCc3c(F)cccc3C(F)(F)F)nc(NCc3nc[nH]n3)nc12
IC50 [2]: 4.3 µM

NC(=O)c1cccc2c(NCc3c(F)cccc3C(F)(F)F)nc(NCc3ncc[nH]3)nc12
IC50 [2]: 6.8 µM

C[C@@H](O)c1n[nH]c2c1CN(C1=NC(NCc3c(F)cccc3C(F)(F)F)c3cccc(C(N)=O)c3N1)C2 (some centres not stated)
IC50 [2]: 0.23 µM
solubility [4]: 11 µg/mL (≈ 21.3 µM)

Cc1n[nH]cc1CNc1nc(NCc2c(F)cccc2C(F)(F)F)c2cccc(C(N)=O)c2n1
IC50 [2]: 0.62 µM

C[C@H]1c2cn[nH]c2CN1C1=NC(NCc2c(F)cccc2C(F)(F)F)c2cccc(C(N)=O)c2N1 (some centres not stated)
IC50 [2]: 2.5 µM

NC(=O)c1cccc2c1NC(N1Cc3c(N)n[nH]c3C13CC3)=NC2NCc1c(F)cccc1C(F)(F)F (configuration not stated)
IC50 [2]: 0.004 µM
chromatographic logD [1]: 3.9
